Experimental data reported in ChEMBL document CHEMBL1201862, “PubChem BioAssay data set” (2004).
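All cell lines were grown in 96-well plates and treated with compound for 48 hours. GI50: concentration for 50% inhibition of growth.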 Activity calls are given as the source filed them. No stated cut-off is given here; in the data, active = GI50 up to about 1.1 µM and inactive = higher.

Assays:
Test in all cases: DTP human tumour cell line panel, 48 h
[1] = test system: 786-0
[2] = test system: ACHN
[3] = test system: DU-145
[4] = test system: EKVX
[5] = test system: HL-60
[6] = test system: Hs-578T
[7] = test system: IGROV-1
[8] = test system: KM12
[9] = test system: MDA-MB-231
[10] = test system: MDA-MB-435
[11] = test system: MOLT-4
[12] = test system: Malme-3M
[13] = test system: OVCAR-4
[14] = test system: SF-268
[15] = test system: SF-295
[16] = test system: SK-MEL-2
[17] = test system: SK-MEL-5
[18] = test system: SK-OV-3
[19] = test system: SNB-75
[20] = test system: UACC-62

| SMILES | GI50 [1] | GI50 [2] | GI50 [3] | GI50 [4] | GI50 [5] | GI50 [6] | GI50 [7] | GI50 [8] | GI50 [9] | GI50 [10] | GI50 [11] | GI50 [12] | GI50 [13] | GI50 [14] | GI50 [15] | GI50 [16] | GI50 [17] | GI50 [18] | GI50 [19] | GI50 [20] |
| --- | --- | --- | --- | --- | --- | --- | --- | --- | --- | --- | --- | --- | --- | --- | --- | --- | --- | --- | --- | --- |
| CCCOc1cc2c(cc1O)CC[C@@H]1[C@@H]2CC[C@]2(C)[C@@H](O)CC[C@@H]12 | 3.63 µM (inactive) | 5.2 µM (inactive) | 3.27 µM (inactive) | 6.27 µM (inactive) | 0.637 µM (active) | 1.55 µM (inactive) | 5.48 µM (inactive) | 4.15 µM (inactive) | 5.56 µM (inactive) | 0.284 µM (active) | 0.946 µM (active) | 6.82 µM (inactive) | 15.1 µM (inactive) | 6.3 µM (inactive) | 2.76 µM (inactive) | 2.17 µM (inactive) | 2.12 µM (inactive) | 3.04 µM (inactive) | 2.36 µM (inactive) | 1.2 µM (inactive) |
| CN(NC(=O)/C(=C/c1ccc(O)cc1)NC(=O)c1ccccc1)c1ccnc2cc(Cl)ccc12 | 15.9 µM (inactive) | 18.3 µM (inactive) | 21.9 µM (inactive) | 18.2 µM (inactive) | 2.79 µM (inactive) | 19.2 µM (inactive) | 16.3 µM (inactive) | 17.8 µM (inactive) | 20.7 µM (inactive) | 17.3 µM (inactive) | 16.7 µM (inactive) | 20 µM (inactive) | 17 µM (inactive) | 15.1 µM (inactive) | 16.4 µM (inactive) | 22.3 µM (inactive) | 21 µM (inactive) | 19 µM (inactive) | 8.85 µM (inactive) | 17.1 µM (inactive) |
| COC(=O)c1c(C)ccc2c(O)c3c(cc12)C(=O)c1c2c(cc(O)c1C3=O)C1(C)OC(C)(O2)C(O)C(N(C)C)C1O (stereo not given) | 0.767 µM (active) | 1.23 µM (inactive) | 1.43 µM (inactive) | 2.37 µM (inactive) | 3.98 µM (inactive) | 1.86 µM (inactive) | 1.06 µM (active) | 1.42 µM (inactive) | 1.38 µM (inactive) | 1.62 µM (inactive) | 0.543 µM (active) | 2.62 µM (inactive) | 2.12 µM (inactive) | 1.05 µM (active) | 1.81 µM (inactive) | 2.24 µM (inactive) | 8.38 µM (inactive) | 3.33 µM (inactive) | 1.61 µM (inactive) | 1.66 µM (inactive) |
| COC1=CC(=O)c2c(O)c3c(c(O)c2C1=O)OC1(Oc2c(cc4cc(C)oc(=O)c4c2O)CC1O)C3O (stereo not given) | 40 µM (inactive) | 41.3 µM (inactive) | 33.8 µM (inactive) | 24.9 µM (inactive) | 33.3 µM (inactive) | 91.8 µM (inactive) | 25.8 µM (inactive) | 29.9 µM (inactive) | 24 µM (inactive) | 33.7 µM (inactive) | 23.3 µM (inactive) | 2.14 µM (inactive) | 27.8 µM (inactive) | 61 µM (inactive) | 41.6 µM (inactive) | 39.7 µM (inactive) | 26.6 µM (inactive) | 77.1 µM (inactive) | 60.4 µM (inactive) | 32.7 µM (inactive) |
| Cn1c2ccccc2c2c(-c3ccccc3)cc3c(c21)C(=O)C=CC3=O | 1.57 µM (inactive) | 1.63 µM (inactive) | 5.4 µM (inactive) | > 5.3 µM (inactive) | 0.361 µM (active) | 3.54 µM (inactive) | 2.3 µM (inactive) | 4.43 µM (inactive) | 2.43 µM (inactive) | 1.92 µM (inactive) | 0.28 µM (active) | 2.06 µM (inactive) | 2.46 µM (inactive) | 3.36 µM (inactive) | > 10 µM (inactive) | 3.03 µM (inactive) | 2.96 µM (inactive) | > 10 µM (inactive) | > 5.66 µM (inactive) | 1.73 µM (inactive) |
| CC(NC(=O)C(N)CC(=O)O)NC(=O)N(C)C(C)(C)C (stereo not given) | > 100 µM (inactive) | > 100 µM (inactive) | > 100 µM (inactive) | > 100 µM (inactive) | > 100 µM (inactive) | > 100 µM (inactive) | > 100 µM (inactive) | > 100 µM (inactive) | > 100 µM (inactive) | > 100 µM (inactive) | > 100 µM (inactive) | > 100 µM (inactive) | > 100 µM (inactive) | > 100 µM (inactive) | > 100 µM (inactive) | > 100 µM (inactive) | > 100 µM (inactive) | > 100 µM (inactive) | > 100 µM (inactive) | > 100 µM (inactive) |
| Cc1sc2nc(N(C)C)oc(=O)c2c1C | > 100 µM (inactive) | 79.8 µM (inactive) | > 100 µM (inactive) | 59.6 µM (inactive) | 37.9 µM (inactive) | > 100 µM (inactive) | > 100 µM (inactive) | > 100 µM (inactive) | > 100 µM (inactive) | > 100 µM (inactive) | 73.8 µM (inactive) | > 100 µM (inactive) | > 100 µM (inactive) | 7.01 µM (inactive) | 61.2 µM (inactive) | > 100 µM (inactive) | 72.4 µM (inactive) | > 100 µM (inactive) | 34.5 µM (inactive) | > 100 µM (inactive) |
